These results are taken from article PMC8482806, “A Novel Blood-Brain Barrier-Permeable Chemotherapeutic Agent for the Treatment of Glioblastoma” (Cureus, 2021).

What is called IC50 is the point on the concentration scale where inhibition reaches its midpoint.

Assay [1] concerns breast cancer metastatic tumors. Set-up: method as in PMID 34635566. Conditions: leptomeningeal metastatic disease model, BBB never disrupted; cited from earlier work.
For assay [2], the system named is U87-MGMT cells. Kind of assay: WST1 cell viability assay, U87-MGMT. The assay is classed as cell-based. Conditions: Homo sapiens, read-out: LC50 (μM ± SD). As for the experimental part:
In vitro activities of QBS10072S and temozolomide (TMZ) in U87 and U87-MGMT cells were assessed using the WST1 cell viability assay in 96-well plates in which 500/well of cells were plated in sextuplets for each condition. To avoid cell loss, the following washing and medium removing procedures were all done using a P200 pipet without vacuum aspiration. For QBS10072S treatment, cells were washed with PBS the next day and incubated with 50 μL of various concentrations of QBS10072S in PBS for 1 hour at 37°C. After incubation, 150 μL of growth medium was added to each well. The medium was subsequently changed every two days until day 7. For TMZ treatment, cells were treated with 100 μL of various concentrations of TMZ in a growth medium for 2 days. After incubation, cells were put back in a normal growth medium and continued culturing for five days. In the end, 10 μL of WST1 reagent was added to each well and incubated at 37°C for 4h before subjecting to plate reading at 450 nm and 690nm using an EnSpire multimode plate reader (PerkinElmer). Background (OD690nm) was subtracted and data were normalized to the control. LC50s were determined by non-linear regression using GraphPad Prism (GraphPad Software Inc., San Diego, California)

Assay [3] has as its target T1, hLAT2 (Homo sapiens, UniProt Q9UHI5).
T1 construct: host or cells: LLC-PK1 (tetracycline-inducible, Invitrogen Gateway pT-REx System)
T1 sequence (Q9UHI5 1-535): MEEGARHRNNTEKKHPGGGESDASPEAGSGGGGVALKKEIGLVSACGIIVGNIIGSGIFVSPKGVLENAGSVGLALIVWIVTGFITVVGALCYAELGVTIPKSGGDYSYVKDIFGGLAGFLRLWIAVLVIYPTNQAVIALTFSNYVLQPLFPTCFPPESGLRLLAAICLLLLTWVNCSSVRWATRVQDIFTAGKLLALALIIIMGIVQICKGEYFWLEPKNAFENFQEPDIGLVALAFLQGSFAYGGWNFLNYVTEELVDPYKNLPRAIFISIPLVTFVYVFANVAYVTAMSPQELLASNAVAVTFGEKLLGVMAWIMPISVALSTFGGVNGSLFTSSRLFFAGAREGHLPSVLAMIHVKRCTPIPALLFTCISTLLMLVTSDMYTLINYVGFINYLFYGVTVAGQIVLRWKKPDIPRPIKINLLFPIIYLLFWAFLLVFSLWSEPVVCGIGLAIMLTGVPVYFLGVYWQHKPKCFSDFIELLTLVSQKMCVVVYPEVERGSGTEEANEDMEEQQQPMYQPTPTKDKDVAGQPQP
T1 sequence (P08195 1-529 partner): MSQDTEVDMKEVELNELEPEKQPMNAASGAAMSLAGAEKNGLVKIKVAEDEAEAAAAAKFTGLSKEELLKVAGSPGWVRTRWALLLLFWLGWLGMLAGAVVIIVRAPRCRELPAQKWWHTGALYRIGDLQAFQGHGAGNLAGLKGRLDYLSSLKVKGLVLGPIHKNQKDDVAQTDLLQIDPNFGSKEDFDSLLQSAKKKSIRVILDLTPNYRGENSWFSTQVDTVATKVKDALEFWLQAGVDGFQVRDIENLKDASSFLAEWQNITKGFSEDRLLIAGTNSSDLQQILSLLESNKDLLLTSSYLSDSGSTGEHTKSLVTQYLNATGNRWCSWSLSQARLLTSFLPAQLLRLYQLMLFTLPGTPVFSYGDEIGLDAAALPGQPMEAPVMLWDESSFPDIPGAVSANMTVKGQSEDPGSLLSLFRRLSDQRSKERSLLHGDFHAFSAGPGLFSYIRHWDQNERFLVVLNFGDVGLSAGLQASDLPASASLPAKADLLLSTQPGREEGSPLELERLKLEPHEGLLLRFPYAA
Kind of assay: Substrate transport inhibition, [3H]-leucine uptake in LLC-PK1 cells expressing hLAT2. Format: cell-based. Conditions: [3H]-leucine, LLC-PK1 LAT2-expressing cells, 15 minutes at room temperature; read-out: IC50, inhibition of substrate transport (LAT2). As for the experimental part: Substrate transport inhibition studies were conducted with LLC-PK1 cells inducibly expressing either hLAT1 or hLAT2. Cells were plated in growth media with 1 μg/mL doxycycline at 30,000 cells/well in 96-well plates. Sixteen hours after plating, cells were treated with butyrate at a final concentration of 5 mM. The following day, cells were washed with PBS and incubated in the presence or absence of various concentrations of QBS10072S with 30,000 cpm/well of either [3H]-gabapentin (LAT1) or [3H]-leucine (LAT2) in PBS for 15 minutes at room temperature. The non-specific cell-bound activity was determined by the addition of 5 mM unlabeled gabapentin (LAT1) or leucine (LAT2). Unincorporated radioactivity was removed, and cells were washed three times with ice-cold PBS. Cells were lysed by adding scintillation fluid to each well, and cell-associated radioactivity was determined via scintillation counting using a multichannel 96-well plate reader (MicroBeta Trilux, Perkin Elmer, Waltham, MA). Data were expressed as the percent of specific radioactivity uptake in wells with no compound added. LC50s were determined by non-linear curve-fitting using GraphPad Prism (San Diego, CA).

Assay [4] relates to GBM cell lines. The assay can be described thus: Cell viability assay (CellTiter-Glo), multiple GBM cell lines. Format: cell-based. Conditions: Homo sapiens; range over cell lines; read-out: EC50s, viability loss in multiple GBM cell lines. As for the experimental part: In vitro activity of QBS10072S was assessed using a modified clonogenic cell viability assay in 96-well clear-bottom plates. For the LLC-PK1 inducible LAT1-expressing cell line, 1000 cells/well were plated and cells were treated with either butyrate alone (non-induced) or with both butyrate and doxycycline (induced) as described above. For GBM cell lines, 2000 cells/well were plated. On day 2 (GBM) or day 3 (LLC-PK1) after original plating, cells were washed twice with PBS and incubated with 50 μL of various concentrations of QBS10072S in PBS in at least quadruplicate. After 30 minutes at 37°C, 200 μL of growth medium was added to each well. Clonal populations were allowed to grow until the control wells (mock treatment) were near confluence (7 to 10 days). At this point, 170 μL media were removed and 60 μL CellTiter-Glo® (Promega, Madison, WI) were added to each well. Plates were placed on an orbital shaker for three minutes to lyse the cells and then incubated for an additional 10 minutes at RT to stabilize the luminescent signal. Luminescence was recorded using an EnSpire® Multimode Plate Reader (Perkin Elmer). Background (luminescence from wells incubated with 100 μM melphalan or lomustine) was subtracted and data were normalized to the control. EC50s were determined by non-linear regression using GraphPad Prism.
In general terms: In ATP-based viability assays light output follows the ATP content of the culture.

On to `Cc1ccc(N(CCCl)CCCl)cc1C[C@H](N)CC(=O)O` [QBS10072S, (+)-(3S)-amino-4-[5-[bis(2-chloroethyl)amino]-2-methyl-phenyl]butanoic acid], for which the “inhibition of tumor growth with intact BBB” value in assay [1] is “still effective for inhibiting tumor growth”. The CC50 in assay [2] was determined as 12.8 ± 4.1 µM. In assay [3], the IC50 was determined as 1100 µM. Also, the EC50 in assay [4] fell in the range of 12 to 40 µM.
